Assay results taken from patent US6482771B2, “Synergistic herbicidal methods and compositions” (BASF Aktiengesellschaft, priority 2000, dated 2002).

Columns and labels:
Bromus diandrus = test: Field plot evaluation of density reduction in Bromus diandrus (great bromegrass); assay type: in vivo; conditions: 28 g/ha, weed count vs untreated plot
Method: (§1) In the following examples, synergism is determined by the Colby (Colby, S. R., Weeds, 1967(15), p. 20-22) method, i.e. the expected (or predicted) response of the combination is calculated by taking the product of the observed response for each individual component of the combination when applied alone divided by 100 and subtracting this value from the sum of the observed response for each component when applied alone. Synergism of the combination is then determined by comparing the observed response of the combination to the expected (or predicted) response as calculated from the observed responses of each individual component alone. If the observed response of the combination is greater than the expected (or predicted) response then the combination is said to be synergistic.
All trials employ standard accepted weed science procedures. Applications are made to 2×10M plots with a propane gas-powered small plot boomspray applicator. Test design is a modified randomized complete block design with four replications. Applications are made at 2-6 weeks after the imidazolinone-tolerant crop is sown. […]
Using essentially the same procedure and test solutions described in Example 1, the following evaluation is carried out. In this evaluation, density reduction is measured by counting the Bromus diandrus weeds in the treated plots and comparing the count to that of the untreated plot. […]

Hordeum leporinum = test: Field plot evaluation of biomass reduction and seedhead suppression in Hordeum leporinum (wild barley), post-emergence in an imidazolinone-tolerant crop; assay type: in vivo; conditions: 28 g/ha; for Seed Head Red. Observed: seedhead count vs untreated plot; for Bio. Red. Observed: visual rating vs untreated plots, average of 4 replicates
Method: as §1
All trials employ standard accepted weed science procedures. Applications are made to 2×10M plots with a propane gas-powered small plot boomspray applicator. Test design is a modified randomized complete block design with four replications. Applications are made at 2-6 weeks after the imidazolinone-tolerant crop is sown.
In this evaluation biomass reduction is determined by visually rating the numbers and bulk of Hordeum leporinum in the treatment plots as compared to the numbers and bulk in the untreated plots. Seedhead suppression is measured by counting the seedheads of Hordeum leporinum in each of the treated plots and comparing to the number of seedheads in the untreated plot.
The test solutions are prepared by tank-mixing commercial formulations. All treatments also contain 0.5% v/v of an ethoxylated vegetable oil.
The treated plots are examined at intervals during the growing season and rated for percent biomass reduction and percent seedhead suppression. The data shown are an average of the replicates for that treatment. The Colby method of analysis is used to determine the resultant biological effect of the combination treatment as compared to the biological effect of each component when applied alone.

`COCc1cnc(C2=NC(C)(C(C)C)C(=O)N2)c(C(=O)O)c1` (stereo not drawn) [imazamox, 2-(4-isopropyl-4-methyl-5-oxo-2-imidazolin-2-yl)-5-(methoxymethyl)-nicotinic acid] was tested, and the “Density Red. Obs.” value (Bromus diandrus) was 98.96%, the “Seed Head Red. Observed” value (Hordeum leporinum) was 76.33% and the “Bio. Red. Observed” value (Hordeum leporinum) was 80%.

In the case of `Cc1cnc(C2=NC(C)(C(C)C)C(=O)N2)c(C(=O)O)c1` (stereo not drawn) [imazapic, 2-(4-isopropyl-4-methyl-5-oxo-2-imidazolin-2-yl)-5-methylnicotinic acid], the “Density Red. Obs.” value (Bromus diandrus) is reported as −17.29%, the “Seed Head Red. Observed” value (Hordeum leporinum) is reported as 5.55% and the “Bio. Red. Observed” value (Hordeum leporinum) is reported as 30%.
